What was measured:
KRAS G12D protein = biological target: T1, KRAS G12D protein (Homo sapiens, UniProt P01116, G12D); test: KRAS degradation activity by Cell ELISA in AsPC-1 (Test Example 1); assay type: cell-based; settings: AsPC-1 cells, cultured overnight with compound, corrected with β-actin, read-out: DC50 (50% degradation concentration of the amounts of KRAS)
T1 construct: host or cells: AsPC-1
Method: Test Example 1: Evaluation of KRAS Degradation Activity on Human G12D Mutant KRAS-Positive Pancreatic Cancer Line AsPC-1 (CRL-1682; ATCC)
The KRAS degradation activity of test compounds was evaluated by measuring the expression levels of KRAS G12D protein by Cell ELISA.
AsPC-1 cells were seeded at 20 μL per well on 384-well plates (from Greiner bio-one) to give 2.0×10^4 cells per well. As for the cell culture conditions, RPMI 1640 (from Sigma-Aldrich) medium containing 10% fetal bovine serum (from Cytiva) was used in the presence of 5% CO2 at 37° C.
The next day, the test compounds (10 points having final concentrations in the range of 10 μM to 0.3 nM) and DMSO (from FUJIFILM Wako Pure Chemical Corporation), which was the solvent for the test compounds, as a negative control were diluted 500-fold with a fresh medium and were added at 20 μL per well. The cells were cultured overnight.
The next day, the culture supernatant was removed, and 4% paraformaldehyde phosphate buffer (from FUJIFILM Wako Pure Chemical Corporation) was added at 20 μL per well. The plates were allowed to stand for 30 minutes at room temperature to thus immobilize the cells. Then, the supernatant was removed, and 0.1% Triton X-100 (from Amersham Biosciences)-containing Phosphate buffered saline (PBS; from FUJIFILM Wako Pure Chemical Corporation) was added at 20 μL per well. After allowing to stand for 10 minutes at room temperature, the supernatant was removed. PBS was added at 25 μL per well, and the supernatant was removed to thus wash each well. The washing was performed twice in total. Next, the supernatant was removed, and 0.5% sodium dodecyl sulfate (SDS; from Invitrogen)-containing PBS was added at 20 μL per well. After allowing to stand at room temperature for 10 minutes, the supernatant was removed by a centrifugal operation (using a centrifugal dehydrator machine, the supernatant was removed by the same method hereinafter). PBS was added at 25 μL per well, and the supernatant was removed to thus wash each well. The washing was performed twice in total. The supernatant was removed, and blocking solution (Intercept Blocking Buffer; from Li-COR Biosciences) was added at 20 μL per well. After allowing to stand for 30 minutes at room temperature, the supernatant was removed, and a solution obtained by diluting anti-β-actin antibody (Anti-beta Actin antibody [mAbcam 8226]-Loading Control; from abcam) 1,000-fold with blocking solution and a solution obtained by diluting anti-Ras (G12D Mutant Specific) antibody (Ras (G12D Mutant Specific) (D8H7) Rabbit mAb #14429; from Cell Signaling Technology) and anti-β-actin antibody (from abcam) 1,000-fold with blocking solution were respectively added to positive control wells and the other wells at 20 μL per well as a primary antibody. The plate was allowed to stand overnight at 4° C.
The next day, the supernatant was removed. PBS was added at 25 μL per well, and the supernatant was removed to thus wash each well. The washing was performed twice in total. The supernatant was removed, and a solution obtained by diluting Donkey anti-Mouse IgG H&L (IRDye 680RD) (from Li-COR Biosciences) and Goat anti-Rabbit IgG H&L (IRDye 800CW) (from Li-COR Biosciences) 1,000-fold with blocking solution was added at 20 μL per well as a secondary antibody. After allowing to stand for 1 hour at room temperature, the supernatant was removed. PBS was added at 25 μL per well, and the supernatant was removed to thus wash each well. The washing was performed twice in total. After removing the supernatant, the plate was dried with air at room temperature for 2 hours or more, and the 700 nm and 800 nm fluorescent signals were measured with Aerius (from Li-COR Biosciences). […]

[1] = test system: phosphorylation of threonine 202 (Thr202) and tyrosine 204 (Tyr204) of ERK; test: ERK phosphorylation inhibitory effect by Cell ELISA in AsPC-1 (Test Example 2); assay type: cell-based, human; settings: Homo sapiens, ASPC1, AsPC-1 cells, cultured overnight with compound; 1 μM trametinib taken as 0%
Method: Test Example 2: Evaluation of ERK Phosphorylation Inhibitory Effect on Human G12D Mutant KRAS-Positive Pancreatic Cancer Line AsPC-1
The ERK phosphorylation inhibitory effect of test compounds was evaluated by measuring phosphorylation of threonine 202 (Thr202) and tyrosine 204 (Tyr204) of ERK located downstream of the KRAS signal by Cell ELISA.
AsPC-1 cells were seeded on 384-well plates at 36 μL/well to give 2.0×10^4 cells per well. As for the cell culture conditions, RPMI 1640 medium containing 10% fetal bovine serum was used in the presence of 5% CO2 at 37° C.
The next day, the test compounds (10 points having final concentrations in the range of 10 μM to 0.3 nM), trametinib (MEK inhibitor) of a final concentration of 1 μM as positive control and DMSO, which was the solvent for the test compounds, as negative control were diluted 100-fold with a fresh medium and were added at 4 μL per well. The cells were cultured overnight. After culturing, 30% glyoxal solution (40% glyoxal [from Nacalai Tesque] was diluted with PBS) was quickly added at 30 μL per well, and the plate was allowed to stand for 60 minutes at room temperature to thus immobilize the cells. Then, the plate was centrifuged to remove the supernatant (using a centrifugal dehydrator machine, the supernatant was removed by the same method hereinafter), and 0.1% Triton X-100-containing PBS was added at 20 μL per well. After allowing to stand for 10 minutes at room temperature, the supernatant was removed, and the same operation was further repeated. Next, 0.5% SDS-containing PBS was added at 20 μL per well, and after allowing to stand at room temperature for 30 minutes, the supernatant was removed. Subsequently, blocking solution (Intercept Blocking Buffer) was added at 20 μL per well, and the plate was allowed to stand for 1 hour at room temperature. The supernatant was removed, and an ERK (Thr202/Tyr204) phosphorylation antibody (Phospho-p44/42 MAPK (Erk 1/2) (Thr202/Tyr204) (D13.14.4E) XP Rabbit mAb; from Cell Signaling Technology) diluted 2,500-fold with blocking solution was added at 15 μL per well as a primary antibody. The plates were allowed to stand at 4° C. overnight.
The next day, the supernatant was removed. 0.05% Tween-20 (from Thermo Fisher Scientific)-containing PBS was added at 50 μL per well, and the supernatant was removed to thus wash each well. The washing was performed three times in total. After washing, Goat anti-Rabbit IgG H&L (IRDye 800CW) diluted 1,000-fold with blocking solution was added at 15 μL per well as a secondary antibody, and the plates were allowed to stand for 1 hour at room temperature. The supernatant was removed, and each well was washed three times with 0.05% Tween-20-containing PBS in the same manner as after the primary antibody reaction. After removing the supernatant, the plates were dried with air at room temperature for 3 hours or more, and the 800-nm fluorescent signals were measured with Aerius.
With the signaling value at the time of addition of DMSO taken as 100% and with the signaling value at the time of addition of 1 μM trametinib taken as 0%, the 50% inhibitory concentration values (IC50) were calculated by Sigmoid-Emax nonlinear regression analysis.

[2] = test system: human G12D mutant KRAS-positive pancreatic cancer line AsPC-1; test: Non-anchorage-dependent cell growth inhibition, spheroid 3D cell culture (Test Example 3); assay type: cell-based; settings: Homo sapiens, ASPC1, 144 h, AsPC-1 spheroid 3D culture, 6 days, CellTiter Glo 2.0
Method: Test Example 3: Evaluation of Non-Anchorage-Dependent Cell Growth Inhibitory Effect on Human G12D Mutant KRAS-Positive Pancreatic Cancer Line AsPC-1
The non-anchorage-dependent cell growth inhibitory effect of test compounds was evaluated by spheroid 3D cell culture.
AsPC-1 cells were seeded on low-cell-adhesive round bottom 384-well plates (PrimeSurface: from Sumitomo Bakelite) at 36 μL/well to give 5×10^2 cells per well. As for the cell culture conditions, RPMI 1640 medium containing 10% fetal bovine serum was used in the presence of 5% CO2 at 37° C.
The next day, the test compounds (10 or 6 points having final concentrations in the range of 10 μM to 0.3 nM) and DMSO, which was the solvent for the test compounds, as a negative control were diluted 100-fold with a fresh medium and were added at 4 μL per well. After culturing in the presence of 5% CO2 at 37° C. for 6 days, CellTiter Glo 2.0 (from Promega) was added at 20 μL per well. After stirring with a plate mixer (from FINEPCR) at room temperature for 1 hour, the luminescent signals were measured with ARVO X3 (from PerkinElmer).
With the signaling value in treatment with DMSO taken as 100% and with the signaling value in the medium alone without cells taken as 0%, the 50% inhibitory concentration values (IC50) were calculated by Sigmoid-Emax nonlinear regression analysis.

T1 sequence (P01116 1-188 isoform P01116-2 G12D): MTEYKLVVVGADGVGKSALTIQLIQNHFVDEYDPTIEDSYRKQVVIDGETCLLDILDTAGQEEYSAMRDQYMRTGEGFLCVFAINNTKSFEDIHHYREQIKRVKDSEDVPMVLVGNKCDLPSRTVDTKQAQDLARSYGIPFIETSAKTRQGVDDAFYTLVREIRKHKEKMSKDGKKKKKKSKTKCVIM

Structure (SMILES)	DC50 (KRAS G12D protein)	IC50 [1]	IC50 [2]
COCCCOc1nc(N(C)[C@H]2CCNC2)c2cc(C3CC3)c(-c3c(C)c(F)cc4[nH]ncc34)c(OCc3ccc(-c4cn([C@H](C(=O)N5C[C@H](O)C[C@H]5C(=O)N[C@@H](CO)c5ccc(-c6scnc6C)cc5)C(C)C)nn4)cc3)c2n1 (atropisomer, axis not shown) [Example 39]	37 nM	57 nM	39 nM
CO[C@@H](C)COc1nc(N(C)[C@H]2CCNC2)c2cc(C3CC3)c(-c3c(C)c(F)cc4[nH]ncc34)c(OCc3ccc(-c4cn([C@H](C(=O)N5C[C@H](O)C[C@H]5C(=O)N[C@@H](CO)c5ccc(-c6scnc6C)cc5)C(C)C)nn4)c(F)c3)c2n1 (atropisomer, axis not shown; (M)) [Example 44]	43 nM	31 nM	17 nM
Cc1ncoc1-c1ccc([C@H](CO)NC(=O)[C@@H]2C[C@@H](O)CN2C(=O)[C@H](C(C)C)n2cc(-c3ccc(COc4c(-c5c(C)c(F)cc6[nH]ncc56)c(C5CC5)cc5c(N(C)[C@H]6CCNC6)nc(OC[C@H]6CCCO6)nc45)cc3)nn2)cc1 (atropisomer, axis not shown) [Example 31]	59 nM	20 nM	18 nM
CO[C@@H](C)COc1nc(N(C)[C@H]2CCNC2)c2cc(C3CC3)c(-c3c(C)c(F)cc4[nH]ncc34)c(OCc3ccc(-c4cn([C@H](C(=O)N5C[C@H](O)C[C@H]5C(=O)N[C@@H](CO)c5ccc(-n6ccnc6C)cc5)C(C)C)nn4)cc3)c2n1 (atropisomer, axis not shown) [Example 21]	33 nM	47 nM	53 nM
Cc1ncsc1-c1ccc([C@H](CO)NC(=O)[C@@H]2C[C@@H](O)CN2C(=O)[C@H](C(C)C)n2cc(-c3ccc(COc4c(-c5c(C)c(F)cc6[nH]ncc56)c(C5CC5)cc5c(N[C@H]6CCNC6)cc(OC6CCOCC6)nc45)cc3)nn2)cc1 [Example 4]	35 nM	8 nM	7 nM

These reach a lower DC50 (KRAS G12D protein). Values come first.

DC50 (KRAS G12D protein)	IC50 [1]	IC50 [2]	Structure (SMILES)
26 nM	16 nM	14 nM	CO[C@H](C)COc1nc(N(C)[C@H]2CCNC2)c2cc(C3CC3)c(-c3c(C)c(F)cc4[nH]ncc34)c(OCc3ccc(-c4cn([C@H](C(=O)N5C[C@H](O)C[C@H]5C(=O)N[C@@H](CO)c5ccc(-c6scnc6C)cc5)C(C)C)nn4)cc3)c2n1 (atropisomer, axis not shown) [Example 16]
24 nM	5 nM	8 nM	CO[C@@H](C)COc1nc(N[C@H]2CCNC2)c2cc(C3CC3)c(-c3c(C)c(F)cc4[nH]ncc34)c(OCc3ccc(-c4cn([C@H](C(=O)N5C[C@H](O)C[C@H]5C(=O)N[C@@H](CO)c5ccc(-c6scnc6C)cc5)C(C)C)nn4)cc3)c2n1 (atropisomer, axis not shown) [Example 6]
22 nM	2 nM	3 nM	CCn1nccc1-c1ccc([C@H](CO)NC(=O)[C@@H]2C[C@@H](O)CN2C(=O)[C@H](C(C)C)n2cc(-c3ccc(COc4c(-c5c(C)c(F)cc6[nH]ncc56)c(C5CC5)cc5c(N(C)[C@H]6CCNC6)nc(OC[C@@H]6CCCO6)nc45)cc3)nn2)cc1 (atropisomer, axis not shown) [Example 26]
14 nM	59 nM	44 nM	CO[C@@H](C)COc1nc(N[C@@H]2CCNC2)c2cc(C3CC3)c(-c3c(C)c(F)cc4[nH]ncc34)c(OCc3ccc(-c4cn([C@H](C(=O)N5C[C@H](O)C[C@H]5C(=O)N[C@@H](CO)c5ccc(-c6scnc6C)cc5)C(C)C)nn4)cc3)c2n1 (atropisomer, axis not shown) [Example 51]
13 nM	7 nM	9 nM	Cc1ncsc1-c1ccc([C@H](CO)NC(=O)[C@@H]2C[C@@H](O)CN2C(=O)[C@H](C(C)C)n2cc(-c3ccc(COc4c(-c5c(C)c(F)cc6[nH]ncc56)c(C5CC5)cc5c(O[C@H]6CCNC6)nc(OC6CCOCC6)nc45)cc3)nn2)cc1 (atropisomer, axis not shown) [Example 1]
9 nM	12 nM	10 nM	CO[C@@H](C)COc1nc(O[C@H]2CCNC2)c2cc(C3CC3)c(-c3c(C)c(F)cc4[nH]ncc34)c(OCc3ccc(-c4cn([C@H](C(=O)N5C[C@H](O)C[C@H]5C(=O)N[C@@H](CO)c5ccc(-c6scnc6C)cc5)C(C)C)nn4)cc3)c2n1 (atropisomer, axis not shown) [Example 5]

Source: patent publication US20250206751A1, “HETEROCYCLIC COMPOUND FOR INDUCING DEGRADATION OF G12D MUTANT KRAS PROTEIN” (Astellas Pharma Inc., priority 2022, published 2025)
